Data taken from US20050032896A1, “Use of synthetic retinoic acid in form of 13-cis vitamin A for treatment of autism” (priority 2002, published 2005).

Tests used:
Format in all cases: in vivo, human
synaptic activity = assay: Auditory evoked potential (AEP) responses before and after the dosage regimen; conditions: after the dosage regimen versus before
Protocol: (§1) As an example, the improvements in relief or elimination of symptoms of autistic disorder after about 17 days of administering synthetic retinoic acid in the form of 13-cis vitamin A at dosage levels of from about 20 mg every other day to about 40 mg per day, auditory evoked potential (AEP) responses were given before administering the mentioned dosage and after administration of the dosage regimen.

symptoms of autism = assay: Oral treatment of an autistic subject, observed symptoms of autism
Source text: The patient in the present example is a child, weighs approximately 60 pounds, and is characterized by the symptoms of deficiencies in short term memory, inadequate independent problem solving skills for their age, deficient spontaneous verbalizations, utterances of diminished length, infrequent request to interact with family members and friends, insufficient capacity to master the complexity of play schemes for their age, and a tendency toward abnormal emotional responses (i.e. laughing when someone is seriously hurt in a movie, not offering assistance to family members when hurt, and not laughing along with siblings while watching cartoons, but instead tensing and becoming overly excited).
The subject weighing approximately 60 pounds was given a dosage of synthetic retinoic acid in the form of 13-cis vitamin A in amounts from about […] to about 40 mg per 60 lbs of body weight per day. […] Improvements in lessening the symptoms associated with the autism disorder were noted as early as 10 days into the treatment, with solid gains noted by the 17th day into the treatment.
as §1

[1] = Blood analysis for retinoic acid content after oral vitamin A palmitate, first vitamin A study 1996; conditions: autistic subject; vitamin A palmitate day 1=0, day 2=25,000 IU, day 3 through day 7=50,000 IU
Protocol: In the first vitamin A study in 1996, a sample of the autistic subjects blood was analyzed for retinoic acid content on the belief that there was a deficiency of retinoic acid. At this time, the subject had been receiving up to about 50,000 IU dose of vitamin A palmitate, wherein day 1=0, day 2=25,000 IU and day 3 through day 7=50,000 IU. The RDA is 5,000 IU per day.

[2] = Blood analysis for retinoic acid content after oral vitamin A palmitate, second study 1999 to 2000; conditions: autistic subject; oral 20 mg every other day for two weeks, then 40 mg per day up to 5 months
Protocol: In a second study conducted in a period from 1999 to 2000, the autistic subject was orally given retinoic acid in the form of […] in an amount of 20 mg every other day for two weeks, and thereafter the dosage was increased to 40 mg per day for a period up to 5 months. […] Although there are numerous cis-trans isomers of vitamin A, there is no possibility for cis-trans isomerism about the cyclohexane double bond because the ring contains only 6 atoms. There are four carbon-carbon double bonds in the chain of atoms attached to the substituted cyclohexane ring, and each has the potential for cis-trans isomerism. Therefore, there are 2×2×2×2, or 16, possible cis-trans isomers for vitamin A. [drawing 1]

[3] = 20 mg every other day for two weeks, then 40 mg per day, oral
[4] = autistic subject, oral dosage regimen

| retinoic acid content in blood [1] | retinoic acid content in blood samples [2] | Structure (SMILES) | synaptic activity recorded by audio evoked potentials (AEP) (synaptic activity) | time into treatment at which improvements in symptoms were first noted (symptoms of autism; [3]) | time into treatment at which solid gains were noted (symptoms of autism; [3]) | language and cognitive functions (symptoms of autism; after the dosage regimen for between about 10 and 17 days) | capability to master the complexity of play schemes (symptoms of autism; [4]) | frequency of request to interact with family members and friends (symptoms of autism; [4]) | independent problem solving skills (symptoms of autism; [4]) | length of utterances (symptoms of autism; [4]) | short term memory (symptoms of autism; [4]) | spontaneous verbalizations (symptoms of autism; [4]) | tendencies towards more normalized emotional responses (symptoms of autism; [4]) | optimal dose for lessening the symptoms of autism (symptoms of autism; for two weeks, thereafter increased to 40 mg per day, person, approx. 60 pounds, oral) |
| --- | --- | --- | --- | --- | --- | --- | --- | --- | --- | --- | --- | --- | --- | --- |
| – | – | CC1=C(/C=C/C(C)=C/C=C/C(C)=C\C(=O)O)C(C)(C)CCC1 | increase in synaptic activity | 10 days | ≤ 17 days | noted improvement in language and cognitive functions | increase in the capability to master the complexity of play schemes | increase in the frequency of request to interact with family members and friends | improvement in independent problem solving skills | increase in the length of utterances | Improvement in short term memory | increase in spontaneous verbalizations | improvement in tendencies towards more normalized emotional responses | about 20 mg per 60 lbs of body weight every other day |
| no retinoic acid could be detected | contained no retinoic acid | CCCCCCCCCCCCCCCC(=O)OC/C=C(C)/C=C/C=C(C)/C=C/C1=C(C)CCCC1(C)C [vitamin A palmitate] | – | – | – | – | – | – | – | – | – | – | – | – |
